We go through three molecules from paper PMC2706530 (Hypertension, 2009).

Holding throughout (assay type): biochemical
One experiment addresses T1, neprilysin (Rattus norvegicus, UniProt P07861).
T1 sequence (P07861 1-750): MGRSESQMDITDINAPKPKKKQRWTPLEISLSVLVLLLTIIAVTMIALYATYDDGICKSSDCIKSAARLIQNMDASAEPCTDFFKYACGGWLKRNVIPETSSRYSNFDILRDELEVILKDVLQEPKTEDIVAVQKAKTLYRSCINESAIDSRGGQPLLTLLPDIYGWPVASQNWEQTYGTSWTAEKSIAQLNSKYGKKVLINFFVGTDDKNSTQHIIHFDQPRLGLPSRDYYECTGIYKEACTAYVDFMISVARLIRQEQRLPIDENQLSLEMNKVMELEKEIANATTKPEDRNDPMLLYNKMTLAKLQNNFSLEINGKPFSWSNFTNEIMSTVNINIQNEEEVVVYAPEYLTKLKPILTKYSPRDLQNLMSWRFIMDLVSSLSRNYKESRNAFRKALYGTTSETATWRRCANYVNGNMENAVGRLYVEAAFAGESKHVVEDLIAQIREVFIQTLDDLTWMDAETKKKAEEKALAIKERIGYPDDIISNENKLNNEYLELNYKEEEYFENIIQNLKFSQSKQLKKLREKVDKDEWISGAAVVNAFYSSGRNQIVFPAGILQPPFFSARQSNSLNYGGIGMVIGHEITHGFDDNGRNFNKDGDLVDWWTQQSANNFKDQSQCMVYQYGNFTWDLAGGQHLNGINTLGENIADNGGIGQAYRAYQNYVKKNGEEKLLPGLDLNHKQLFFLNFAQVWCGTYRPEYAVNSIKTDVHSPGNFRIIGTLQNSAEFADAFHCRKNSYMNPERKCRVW
Kind of experiment: Effect of NEP inhibitor on ANG-I conversion by isolated rat glomeruli. The conditions noted are these: 10 μM thiorphan, 1 μM ANG-I, 15-90 minutes; p < 0.05 vs. untreated; n=7.

For another experiment, the system named is ANG-II type 1-receptor. Kind of experiment: Effect of losartan pre-incubation on ANG-II detection in isolated rat glomeruli. As to conditions: pre-incubation with 10 μM losartan, 1 μM ANG-I; data not shown.
The target in a further experiment is aminopeptidase-A (Rattus norvegicus, UniProt P50123). Kind of experiment: Effect of APA inhibitor on ANG-I conversion by isolated rat glomeruli. The conditions noted are these: 100 μM amastatin, 1 μM ANG-I.
Sequence of aminopeptidase-A (P50123 whole entry): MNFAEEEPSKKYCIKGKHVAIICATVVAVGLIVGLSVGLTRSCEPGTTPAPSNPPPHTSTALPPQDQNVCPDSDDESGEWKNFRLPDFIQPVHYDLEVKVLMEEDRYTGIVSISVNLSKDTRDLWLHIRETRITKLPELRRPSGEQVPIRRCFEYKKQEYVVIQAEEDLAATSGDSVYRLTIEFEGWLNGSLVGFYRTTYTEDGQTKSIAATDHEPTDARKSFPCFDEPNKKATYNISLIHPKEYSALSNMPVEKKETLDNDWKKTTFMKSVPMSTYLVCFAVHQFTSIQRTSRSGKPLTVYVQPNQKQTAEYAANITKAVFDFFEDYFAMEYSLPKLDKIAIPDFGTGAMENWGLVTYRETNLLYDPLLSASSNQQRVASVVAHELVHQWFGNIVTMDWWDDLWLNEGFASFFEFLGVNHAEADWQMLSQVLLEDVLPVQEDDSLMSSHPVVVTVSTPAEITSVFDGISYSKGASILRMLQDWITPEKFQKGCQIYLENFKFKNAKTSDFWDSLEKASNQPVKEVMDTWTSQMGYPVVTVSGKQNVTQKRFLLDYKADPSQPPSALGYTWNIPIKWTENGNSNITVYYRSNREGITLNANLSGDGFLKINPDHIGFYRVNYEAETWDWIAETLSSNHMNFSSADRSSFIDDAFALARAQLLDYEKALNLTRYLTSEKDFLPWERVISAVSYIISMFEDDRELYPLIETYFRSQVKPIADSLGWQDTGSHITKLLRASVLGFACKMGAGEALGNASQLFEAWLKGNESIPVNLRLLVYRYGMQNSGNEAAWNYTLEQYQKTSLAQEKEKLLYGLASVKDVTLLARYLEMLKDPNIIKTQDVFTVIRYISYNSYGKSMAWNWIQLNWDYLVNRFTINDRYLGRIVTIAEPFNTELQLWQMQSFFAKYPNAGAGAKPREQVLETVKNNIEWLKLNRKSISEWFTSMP

For `O=C(O)CNC(=O)C(CS)Cc1ccccc1` (stereo not shown) [thiorphan], the “effect on disappearance of ANG-I (NEP inhibition)” value at neprilysin is listed as “significantly reduced”.

`CCCCc1nc(Cl)c(CO)n1Cc1ccc(-c2ccccc2-c2nn[nH]n2)cc1` [losartan]: the “effect on detection of ANG-II” value with ANG-II type 1-receptor is on record as “did not enhance the detection of ANG-II”.

`CC(C)C[C@@H](N)[C@H](O)C(=O)N[C@H](C(=O)N[C@H](C(=O)N[C@@H](CC(=O)O)C(=O)O)C(C)C)C(C)C` [amastatin]: the “effect on disappearance of ANG-I (APA inhibition)” value on aminopeptidase-A (15-90 minutes, p < 0.05 vs. untreated, n=7) is listed as “significantly reduced”. In addition, the “change in ANG-II, amastatin-treated” value at aminopeptidase-A (60 minutes) was “non-significant increase”.
